Measured values as given in publication PMC9518244, “TiO2 nanotube immobilised 5-lipoxygenase-mediated screening and isolation of anti-inflammatory active compounds from the leaves of lonicera japonica thunb” (Journal of Enzyme Inhibition and Medicinal Chemistry, 2022).
Where two headings read alike, the source gives them in different places.

How the values were obtained:
rat foot swelling = test: Rat foot swelling model (egg white); assay type: in vivo; conditions: 5.0 mg/kg intraperitoneal, 10-60 min after egg white
Protocol: the NO kit, and the amount of NO produced in each well was calculated. Each group of experiment was performed in parallel three times.
All the animals were acclimated under standard laboratory conditions and had free access to standard water and food. All procedures were conducted in accordance with the “Guiding Principles in the Care and Use of Animals” (China) and were approved by the Ethics Committee of Biomedical Scientific Research of Henan University.
Thirty two male and female rats were divided into four groups with eight rats in each group.
They were normal saline negative control group, dexamethasone positive control group, n-butanol phase of Lonicera japonica Thunb. leaves (RDY nB) administration group and the […]
The intraperitoneal injection method was used
One hour after injection the corresponding drugs in each group, 0.1 mL of fresh egg white was injected into the right postal paw of each rat. Before and after the injection of egg white at 10, 20, 30, 40, 50, and 60 min, the volume of the right postal paw of rat was measured by a toe volume meter, and the swelling rate was calculated. […]
Statistical analysis was analyzed by one-way ANOVA through SPSS 17.0 software, and all data expressed as mean ± SD. Meanwhile, the significant difference between groups was evaluated by Tukey post-hoc test, P<0.05 and P<0.01 were considered statistically Information Classification: General […]

5-LOX [1] = target: T1, 5-LOX (Glycine max, UniProt P08170); test: 5-LOX immobilised on TiO2 nanotubes microreactor screening (HPLC peak area ratio); assay type: binding; conditions: analytes of LLJT extract eluted from immobilised 5-LOX, HPLC-MS
Protocol: Glutaraldehyde (GA) was used as crosslinking agent to covalently immobilise 5-LOX on the amino terminated TNTs. The NH2-TNTs was added to GA solution and shaken in a incubator at room temperature (25 °C) for 8 h. The resulting product was labelled GA-TNTs. Then GA-TNTs was merged with Tris-HCl solution (0.1 M, pH 7.0) containing a certain amount of 5-LOX, and the immobilisation was performed in a shaker at 4 °C for a certain time. After that, the immobilised 5-LOX was acquired by centrifuge to remove supernatant and comprehensively rinsed with Tris-HCl buffer solution several times to remove the unimmobilised enzyme. The 5-LOX-TNTs composites were suspended in Tris-HCl solution and stored at 4 °C before use.
The crude extract of leaves of Lonicera japonica Thunb. was added to 5% (v/v) methanol-Tris buffer solution, and dissolved by ultrasonic to prepare an incubation solution with a concentration of about 5.66 mg/mL. Then 25 mg of material immobilised with 5-LOX was combined with 1 mL of incubation solution and incubated at 25 °C for 90 min on a shaker. After incubation, the material was washed with 1 mL of buffer solution for six times. Then 1 mL of 90% (v/v) acetonitrile aqueous solution was used for ultrasonic elution for 10 min. After centrifugation, the supernatant was filtered and analysed by HPLC-MS.
The screening processes were the same as above.

5-LOX [2] = target: T1, 5-LOX; test: Offline enzyme model: 5-LOX inhibition, linoleic acid / FOX reagent, A590; assay type: biochemical; conditions: concentration 1.0 mmol/L
Description: Specific steps were as follows:
Information Classification: General
(1 picture or pasted object on this page, not shown here)

RAW264.7 cells [3] = test: Cell morphology observation of RAW264.7 cells; assay type: cell-based, mouse; conditions: 60 μM, with and without LPS 100 ng/mL, microscope 200x
Protocol: The RAW264.7 mouse macrophage cell line (RAW264.7) was cultured in DMEM (Dulbecco's modified eagle medium) supplemented with 10% (v/v) Fetal bovine serum (FBS), 1×105 U·L-1 penicillin and 100 mg·L-1 streptomycin under an atmosphere of humidified 5% CO2 at 37 °C to the logarithmic phase. The samples were dissolved in DMSO and diluted with medium to the desired concentration. The content of DMSO should not exceed 1‰.
There are blank group (no test sample, no LPS), model group (100 ng/mL LPS), experimental group (60 μM test sample + LPS) and negative control group (60 μM test sample) were tested.
For cell morphology observation , the cells were seeded into 6 -well plates at an inoculation amount of 6 ×10^5/well, cultured at 37 °C and 5% CO2 for 24 h, and then the medium was changed. After 2 h incubation with different groups, LPS stimulation with a final concentration of 100 ng/mL were added into the model group and experimental group .
normal group and the negative control group were added with the same volume of PBS, and then photographed under a microscope (200x) after 22 h.

RAW264.7 cells [4] = test: Cytotoxicity assay (CCK-8) in RAW264.7 cells; assay type: cell-based, mouse; conditions: for Toxicity on RAW264.7 cells (in words): 20-60 μM, luteolin 1-5 μM
Protocol: (§1) For cytotoxicity assay, RAW264.7 cells were seeded in 96-well plates at an inoculation amount of 3 × 10^4/well, and the medium was changed after culturing for 24 h at 37 °C and 5% […]
(§2) concentration (20 μM, 40 μM and 60 μM) of sample solution prepared with fresh medium was added dropwise to 96-well plate. After incubation for 2 h, LPS with a final concentration of 100 ng/mL was added to each well of the experimental group and the model group , the same volume of PBS was added to the normal group and the negative control group. After stimulation for another 22 h, the medium was removed and replaced with fresh medium. 10 μL of CCK-8 reagent was added at room temperature in the dark, and the absorbance was measured at a wavelength of 450 nm after 1 h. […]

RAW264.7 cells [5] = test: NO production in LPS-stimulated RAW264.7 cells (NO kit); assay type: cell-based, mouse; conditions: for LPS-induced NO release in RAW264.7 cells (in words): compared with the model group
Protocol: For the effects of the test samples on NO production research, RAW264.7 cells were seeded in 96-well plates at 3×10^4 cells/well, cultured at 37°C, 5% CO 2, and the medium was changed after 24 h. There were the blank group, model group, experimental group (20 μM, 40 μM, 60 μM test sample+LPS) and negative control group (60 μM test sample). After dosing, the cells were incubated at 37 °C with 5% CO 2 for 2 h, then LPS was added to the model group and the experimental group to make the final concentration reach 100 ng/mL, the normal group and the negative control group were added with the same volume of PBS, Then 50 μL of supernatant was taken after culturing for 20 h to record the absorbance value at 540 nm using Information Classification: General

[6] = Cytotoxicity assay (CCK-8) in RAW264.7 cells; assay type: cell-based, mouse; conditions: mouse, RAW264.7 cells, read-out: Cell viability (%)
Protocol: as §1, §2

5-LOX [7] = tested on: 5-LOX; parameters: method as in earlier work; conditions: RBL-1 cells; cited from earlier work
[8] = Cytotoxicity assay (CCK-8) in RAW264.7 cells; assay type: cell-based; conditions: mouse, no LPS, read-out: Cell viability (%)
[9] = 40 μmol/L, LPS 100 ng/mL, vs model group
[10] = 60 μmol/L, LPS 100 ng/mL, vs model group

T1 sequence (P08170 whole entry): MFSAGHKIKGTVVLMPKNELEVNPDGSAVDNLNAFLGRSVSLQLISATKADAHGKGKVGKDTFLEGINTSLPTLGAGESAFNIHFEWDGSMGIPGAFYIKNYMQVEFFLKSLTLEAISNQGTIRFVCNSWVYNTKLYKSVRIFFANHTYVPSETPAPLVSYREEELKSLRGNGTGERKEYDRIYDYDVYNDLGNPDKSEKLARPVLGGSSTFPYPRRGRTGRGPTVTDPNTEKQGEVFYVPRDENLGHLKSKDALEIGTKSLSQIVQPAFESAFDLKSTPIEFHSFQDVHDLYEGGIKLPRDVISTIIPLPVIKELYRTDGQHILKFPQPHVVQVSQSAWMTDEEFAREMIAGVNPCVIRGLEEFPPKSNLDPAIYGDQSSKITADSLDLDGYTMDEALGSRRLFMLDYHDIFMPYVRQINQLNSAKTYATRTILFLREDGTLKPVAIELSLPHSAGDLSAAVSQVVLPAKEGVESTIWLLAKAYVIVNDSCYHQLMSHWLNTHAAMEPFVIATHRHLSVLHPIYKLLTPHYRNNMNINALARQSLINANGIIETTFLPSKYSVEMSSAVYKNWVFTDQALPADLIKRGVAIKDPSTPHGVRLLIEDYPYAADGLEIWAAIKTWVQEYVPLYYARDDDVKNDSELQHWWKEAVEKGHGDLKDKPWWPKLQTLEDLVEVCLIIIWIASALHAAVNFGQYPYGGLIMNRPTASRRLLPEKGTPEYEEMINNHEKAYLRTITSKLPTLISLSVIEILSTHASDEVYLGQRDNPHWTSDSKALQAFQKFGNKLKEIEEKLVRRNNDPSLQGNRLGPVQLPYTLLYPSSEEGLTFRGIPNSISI

Row | SMILES | Bonding rate (%) (5-LOX [1]) | Inhibitory rate (%) (5-LOX [2]) | Effect on morphology of RAW264.7 cells (RAW264.7 cells [3]) | Cell viability (%) (RAW264.7 cells [4]; 20 μmol/L, LPS 100 ng/mL) | Cell viability (%) (RAW264.7 cells [4]; 20 μmol/L, no LPS) | Cell viability (%) (RAW264.7 cells [4]; 40 μmol/L, LPS 100 ng/mL) | Cell viability (%) (RAW264.7 cells [4]; 40 μmol/L, no LPS) | Cell viability (%) (RAW264.7 cells [4]; 60 μmol/L, LPS 100 ng/mL) | Cell viability (%) (RAW264.7 cells [4]; 60 μmol/L, no LPS) | Toxicity on RAW264.7 cells (in words) (RAW264.7 cells [4]) | NO content (RAW264.7 cells [5]; 20 μmol/L, LPS 100 ng/mL) | NO content (RAW264.7 cells [5]; 20 μmol/L, no LPS) | NO content (RAW264.7 cells [5]; 40 μmol/L, LPS 100 ng/mL) | Inhibition rate (%) of NO production (RAW264.7 cells [5]; [9]) | NO content (RAW264.7 cells [5]; 60 μmol/L, LPS 100 ng/mL) | Inhibition rate (%) of NO production (RAW264.7 cells [5]; [10]) | LPS-induced NO release in RAW264.7 cells (in words) (RAW264.7 cells [5]; LPS 100 ng/mL) | viability at 24 h, 20 μmol/L ([6]; LPS 100 ng/mL) | viability at 24 h, 20 μmol/L ([6]; no LPS) | viability at 24 h, 40 μmol/L ([6]; LPS 100 ng/mL) | other results
1 | C[C@@H]1C[C@H]2[C@@H]3CCC4=CC(=O)C=C[C@]4(C)[C@@]3(F)[C@@H](O)C[C@]2(C)[C@@]1(O)C(=O)CO [Dexamethasone] |  |  |  |  |  |  |  |  |  |  |  |  |  |  |  |  |  |  |  |  | Anti-inflammatory effect, foot swelling rate (rat foot swelling): showed a good anti-inflammatory effect
2 | O=C(/C=C/c1ccc(O)c(O)c1)O[C@H]1[C@H](O)C[C@](O)(C(=O)O)C[C@H]1OC(=O)/C=C/c1ccc(O)c(O)c1 [Isochlorogenic acid C, isochlorogenic acid C] | 6.34% | 40.24% | improve the deformation of the inflammatory cells | 206.6±7.8% | 140.0±7.6% | 188.8±1.4% | 190.4±0.2% | 201.4±3.8% | 186.6±4.1% | low toxicity on RAW264.7 cells | 6.6 ± 0.3 µmol/L | 5.9 ± 0.4 µmol/L | 6.7 ± 0.6 µmol/L | 25.6% | 7.2 ± 0.6 µmol/L | 19.9% | can inhibit LPS-induced NO release in RAW264.7 cells |  |  |  | 
3 | C[C@@H]1O[C@@H](O[C@H]2[C@H](Oc3cc(O)c4c(=O)cc(-c5ccc(O)c(O)c5)oc4c3)O[C@H](CO)[C@@H](O)[C@@H]2O)[C@H](O)[C@H](O)[C@H]1O [Lonicerin, lonicerin] | 23.42% |  | improve the deformation of the inflammatory cells |  |  |  |  |  |  | low toxicity on RAW264.7 cells | 6.9 ± 0.3 µmol/L | 6.1 ± 0.1 µmol/L | 7.4 ± 0.2 µmol/L |  | 7.9 ± 2.4 µmol/L |  | could also inhibit LPS-induced NO release | 216 ± 4.2% | 196.2 ± 1.8% | 204 ± 3.5% | viability at 24 h, 40 μmol/L ([6]; no LPS): 180 ± 9.1%; viability at 24 h, 60 μmol/L ([6]; LPS 100 ng/mL): 226 ± 7.8%; viability at 24 h, 60 μmol/L ([6]; no LPS): 179.4 ± 0.8%; inhibition at 20 µM (RAW264.7 cells [5]; Mus musculus, RAW264.7, 20 μmol/L, LPS 100 ng/mL, vs model group, read-out: Inhibition rate (%) of NO production): 23.7%; inhibition at 40 µM (RAW264.7 cells [5]; Mus musculus, RAW264.7, 40 μmol/L, LPS 100 ng/mL, vs model group, read-out: Inhibition rate (%) of NO production): 18.5%; inhibition at 60 µM (RAW264.7 cells [5]; Mus musculus, RAW264.7, 60 μmol/L, LPS 100 ng/mL, vs model group, read-out: Inhibition rate (%) of NO production): 12.4%
4 | O=c1cc(-c2ccc(O)c(O)c2)oc2cc(O)cc(O)c12 [Luteolin, luteolin] | 34.85% |  | cause a large number of cell death |  |  |  |  |  |  |  |  |  |  |  |  |  | failed to inhibit | 52.6 ± 3.1% | 49.5 ± 3.9% | 33.4 ± 12.9% | viability at 24 h, 1 μmol/L ([6]; LPS 100 ng/mL): 195 ± 2.6%; viability at 24 h, 1 μmol/L ([6]; no LPS): 120 ± 7.2%; viability at 24 h, 2 μmol/L ([6]; 2 μmol/L, LPS 100 ng/mL): 199 ± 8.6%; viability at 24 h, 5 μmol/L ([6]; 5 μmol/L, LPS 100 ng/mL): 170 ± 3.5%; viability at 24 h, 40 μmol/L ([6]; no LPS): 22 ± 2.4%; viability at 24 h, 60 μmol/L ([6]; LPS 100 ng/mL): 1.4 ± 0.6%; viability at 24 h, 60 μmol/L ([6]; no LPS): 1.5 ± 0.4%; NO content (RAW264.7 cells [5]; 1 μmol/L, LPS 100 ng/mL): 14.4 ± 0.4 µmol/L; NO content (RAW264.7 cells [5]; 1 μmol/L, no LPS): 11.6 ± 0.6 µmol/L; NO content (RAW264.7 cells [5]; 2 μmol/L, LPS 100 ng/mL): 12.1 ± 0.1 µmol/L; NO content (RAW264.7 cells [5]; 5 μmol/L, LPS 100 ng/mL): 9.4 ± 0.5 µmol/L; inhibition at 1 µM (RAW264.7 cells [5]; Mus musculus, RAW264.7, 1 μmol/L, LPS 100 ng/mL, vs model group, read-out: Inhibition rate (%) of NO production): -51.1%; inhibition at 2 µM (RAW264.7 cells [5]; Mus musculus, RAW264.7, 2 μmol/L, LPS 100 ng/mL, vs model group, read-out: Inhibition rate (%) of NO production): -26.4%; inhibition at 5 µM (RAW264.7 cells [5]; Mus musculus, RAW264.7, 5 μmol/L, LPS 100 ng/mL, vs model group, read-out: Inhibition rate (%) of NO production): 1.8%; IC50 (5-LOX [7]): 0.81 µM; viability at 24 h, 2 μmol/L [8]: 104 ± 8.5%
5 | O=c1cc(-c2ccc(O)c(O)c2)oc2cc(O[C@@H]3O[C@H](CO)[C@@H](O)[C@H](O)[C@H]3O)cc(O)c12 [Luteoloside, luteoloside] | 8.87% | 27.26% | no significant effect on cells | 102.6±0.4% | 100.2±2.1% | 104.2±3.4% | 102.1±1.7% | 103.2±4.8% | 56.8±8.8% |  | 11.5 ± 0.1 µmol/L | 15.8 ± 1.5 µmol/L | 11.9 ± 0.5 µmol/L | -24.9% | 13.6 ± 1.3 µmol/L | -43.0% | failed to inhibit |  |  |  | Inhibition rate (%) of NO production (RAW264.7 cells [5]; 20 μmol/L, LPS 100 ng/mL, vs model group): -20.2%
